The target of assay [1] is T1, Mannose-6-phosphate isomerase (Homo sapiens, UniProt P34949).
T1 sequence (P34949 whole entry): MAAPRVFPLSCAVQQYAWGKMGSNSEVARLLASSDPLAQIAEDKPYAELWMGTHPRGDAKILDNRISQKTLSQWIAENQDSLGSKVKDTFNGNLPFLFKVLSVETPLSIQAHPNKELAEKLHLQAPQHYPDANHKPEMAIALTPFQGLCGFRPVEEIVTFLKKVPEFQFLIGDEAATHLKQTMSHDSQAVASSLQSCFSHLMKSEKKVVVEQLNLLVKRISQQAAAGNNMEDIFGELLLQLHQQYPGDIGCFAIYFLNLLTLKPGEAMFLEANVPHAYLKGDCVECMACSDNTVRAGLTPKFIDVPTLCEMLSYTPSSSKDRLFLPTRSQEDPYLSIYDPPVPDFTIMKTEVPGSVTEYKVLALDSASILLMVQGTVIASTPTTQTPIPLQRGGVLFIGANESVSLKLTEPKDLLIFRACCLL
Nature of the assay: human PMI inhibitors, high substrate, primary screen, biochemical, fluorescence intensity, high mannose 6-phosphate (AID 1220).

The next assay can be described thus: cells. In kind it is functional.
Assay [2] is described as follows: THP-1 cell cytotoxicity, dose response, cytotoxicity control for non-replicating M. tuberculosis project (AID 489025). In kind it is functional.
A further assay concerns the target Kallikrein-7 (Homo sapiens, UniProt P49862). Nature of the assay: Fluorescence Intensity-based biochemical primary high throughput dose response assay to identify activators of kallikrein-7 (K7) zymogen.
The test system of the next assay is INS1. Nature of the assay: beta cell apoptosis inhibitors, cytokine rescue, dose response, luminescence, retest (AID 449756).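 Note: cell death triggered by IL-1 beta plus TNF-alpha plus IFN-gamma mixture; protective hits raise ATP signal compared with cytokine alone wells.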 The conditions noted are these: Rattus norvegicus. In kind it is functional, cell-based.
In assay [3] the target is T2, Heat shock factor protein 1 (Mus musculus, UniProt P38532).
T2 sequence (P38532 whole entry): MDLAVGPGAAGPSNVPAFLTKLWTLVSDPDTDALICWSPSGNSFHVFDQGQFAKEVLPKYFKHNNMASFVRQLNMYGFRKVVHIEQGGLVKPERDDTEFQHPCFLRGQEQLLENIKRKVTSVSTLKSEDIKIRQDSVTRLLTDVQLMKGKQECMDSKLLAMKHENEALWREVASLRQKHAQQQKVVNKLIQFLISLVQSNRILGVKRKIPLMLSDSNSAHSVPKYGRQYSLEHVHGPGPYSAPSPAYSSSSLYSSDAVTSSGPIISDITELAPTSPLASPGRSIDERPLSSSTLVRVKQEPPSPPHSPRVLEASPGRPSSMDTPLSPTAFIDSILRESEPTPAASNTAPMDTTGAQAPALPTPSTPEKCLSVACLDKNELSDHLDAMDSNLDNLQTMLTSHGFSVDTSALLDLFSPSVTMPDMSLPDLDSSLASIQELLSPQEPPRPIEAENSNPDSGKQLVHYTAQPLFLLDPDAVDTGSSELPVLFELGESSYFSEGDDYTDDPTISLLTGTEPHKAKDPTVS
Nature of the assay: inhibition of MG132-induced HSE-luciferase signal, confirmation, cell-based, NIH3T3, luminescence, dose retest (AID 2382).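 Note: NIH3T3 fibroblasts with HSF1-driven luciferase reporter stressed by proteasome inhibitor MG132; luminescence from HSF1-driven luciferase expression after 8 hours of MG132 stress.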 In kind it is functional.

Assay [4] addresses Induced myeloid leukemia cell differentiation protein Mcl-1 (Homo sapiens, UniProt Q07820). It counts as functional.
The nature of assay [5]: MC4R antagonists, dose response, counter-screen for LGR2 antagonist project, cell-based, plate reader, cherry pick (AID 743444).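 Note: transfected HEK 293 cells stimulated with alpha-MSH peptide; potency of inhibitors of the alpha-MSH evoked signal.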 It counts as functional. (A counterscreen serves to expose hits that act by an unwanted route or on another target.)
Assay [6] concerns the target T3, Sentrin-specific protease 8 (Homo sapiens, UniProt Q96LD8).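 Note: luminescence read-out of SENP8 inhibition, dose-response confirmation following an ultra-high-throughput screen.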
T3 sequence (Q96LD8 whole entry): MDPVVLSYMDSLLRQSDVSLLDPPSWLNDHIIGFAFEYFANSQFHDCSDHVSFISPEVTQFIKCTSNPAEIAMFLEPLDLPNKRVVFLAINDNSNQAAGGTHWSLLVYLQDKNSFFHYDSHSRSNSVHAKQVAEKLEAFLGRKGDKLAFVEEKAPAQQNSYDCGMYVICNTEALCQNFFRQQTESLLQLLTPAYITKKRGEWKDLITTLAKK
In kind it is functional.

Assay [7] deals with T4, Sentrin-specific protease 7 (Homo sapiens, UniProt Q9BQF6).
T4 sequence (Q9BQF6 whole entry): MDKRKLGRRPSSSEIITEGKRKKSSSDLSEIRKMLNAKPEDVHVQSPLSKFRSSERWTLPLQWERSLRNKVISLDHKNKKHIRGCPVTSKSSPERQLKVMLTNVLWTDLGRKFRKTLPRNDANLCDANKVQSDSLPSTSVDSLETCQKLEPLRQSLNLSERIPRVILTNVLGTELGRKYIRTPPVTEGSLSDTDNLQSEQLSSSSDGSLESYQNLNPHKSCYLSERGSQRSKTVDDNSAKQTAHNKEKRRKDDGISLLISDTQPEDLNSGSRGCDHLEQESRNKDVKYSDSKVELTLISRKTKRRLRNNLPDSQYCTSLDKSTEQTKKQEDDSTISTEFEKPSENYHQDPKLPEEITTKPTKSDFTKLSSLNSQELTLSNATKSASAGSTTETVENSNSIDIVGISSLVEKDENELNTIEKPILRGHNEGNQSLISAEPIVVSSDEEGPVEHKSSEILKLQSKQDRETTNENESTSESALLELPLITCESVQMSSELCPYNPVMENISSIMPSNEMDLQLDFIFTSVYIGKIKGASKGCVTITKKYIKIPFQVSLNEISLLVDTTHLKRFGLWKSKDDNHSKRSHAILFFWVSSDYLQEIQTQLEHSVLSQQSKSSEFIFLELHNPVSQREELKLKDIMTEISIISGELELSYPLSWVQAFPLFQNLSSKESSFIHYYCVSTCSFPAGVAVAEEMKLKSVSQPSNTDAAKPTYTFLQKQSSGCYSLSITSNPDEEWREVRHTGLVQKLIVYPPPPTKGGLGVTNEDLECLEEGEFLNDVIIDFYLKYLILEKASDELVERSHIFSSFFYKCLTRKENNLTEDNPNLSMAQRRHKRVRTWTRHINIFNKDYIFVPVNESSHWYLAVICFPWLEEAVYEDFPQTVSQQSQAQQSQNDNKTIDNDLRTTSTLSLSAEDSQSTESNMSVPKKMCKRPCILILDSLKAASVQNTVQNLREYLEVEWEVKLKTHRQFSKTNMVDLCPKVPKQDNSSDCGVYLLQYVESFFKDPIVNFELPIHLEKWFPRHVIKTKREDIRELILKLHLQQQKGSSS
In kind it is functional.

Assay [8] can be described thus: LGR2 antagonists, dose response, cell-based, HEK293, CRE-luciferase reporter, cherry pick, set 2 (AID 743343).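 Note: transfected cells were stimulated with diluted bursicon conditioned medium after compound addition.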 In kind it is functional.
Assay [9] can be described thus: HepG2 cell cytotoxicity, dose response, cytotoxicity control, plate reader, cherry-pick, antagonist series (AID 743416). In kind it is functional, cell-based.
Assay [10] concerns the target T5, Sentrin-specific protease 6 (Homo sapiens, UniProt Q9GZR1).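 Note: Luminescence-based dose-response confirmatory assay of SENP6 inhibition, following up an ultra-high-throughput screen.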
T5 sequence (Q9GZR1 whole entry): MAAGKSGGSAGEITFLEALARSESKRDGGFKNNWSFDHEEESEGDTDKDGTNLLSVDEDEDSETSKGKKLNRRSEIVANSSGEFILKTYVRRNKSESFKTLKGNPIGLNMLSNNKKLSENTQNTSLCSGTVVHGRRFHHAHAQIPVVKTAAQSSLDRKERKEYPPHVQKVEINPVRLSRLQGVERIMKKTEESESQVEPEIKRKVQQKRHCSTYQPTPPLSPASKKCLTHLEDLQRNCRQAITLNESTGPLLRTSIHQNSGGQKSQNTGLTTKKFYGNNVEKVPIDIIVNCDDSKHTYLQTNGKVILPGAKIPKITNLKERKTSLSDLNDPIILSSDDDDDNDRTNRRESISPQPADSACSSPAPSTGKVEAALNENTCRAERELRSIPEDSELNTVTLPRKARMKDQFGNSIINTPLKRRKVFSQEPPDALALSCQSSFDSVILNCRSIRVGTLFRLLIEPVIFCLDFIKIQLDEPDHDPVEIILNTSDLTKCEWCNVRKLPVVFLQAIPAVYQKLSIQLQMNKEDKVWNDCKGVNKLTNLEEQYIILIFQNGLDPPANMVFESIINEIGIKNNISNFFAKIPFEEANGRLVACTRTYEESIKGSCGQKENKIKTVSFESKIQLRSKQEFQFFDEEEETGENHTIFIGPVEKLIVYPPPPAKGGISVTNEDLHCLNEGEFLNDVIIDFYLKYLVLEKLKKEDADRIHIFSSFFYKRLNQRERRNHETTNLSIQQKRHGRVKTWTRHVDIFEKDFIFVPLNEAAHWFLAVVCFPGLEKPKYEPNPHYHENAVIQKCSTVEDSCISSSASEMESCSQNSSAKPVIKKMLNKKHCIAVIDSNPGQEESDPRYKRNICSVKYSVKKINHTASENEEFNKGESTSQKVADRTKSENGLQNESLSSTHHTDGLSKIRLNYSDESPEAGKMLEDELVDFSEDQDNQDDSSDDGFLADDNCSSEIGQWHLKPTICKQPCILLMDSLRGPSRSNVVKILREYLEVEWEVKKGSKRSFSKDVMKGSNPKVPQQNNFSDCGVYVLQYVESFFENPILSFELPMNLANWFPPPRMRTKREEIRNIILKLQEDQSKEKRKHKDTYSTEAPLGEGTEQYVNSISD
It counts as functional.

The next assay deals with T6, Caspase-3 (Homo sapiens, UniProt P42574).
T6 sequence (P42574 whole entry): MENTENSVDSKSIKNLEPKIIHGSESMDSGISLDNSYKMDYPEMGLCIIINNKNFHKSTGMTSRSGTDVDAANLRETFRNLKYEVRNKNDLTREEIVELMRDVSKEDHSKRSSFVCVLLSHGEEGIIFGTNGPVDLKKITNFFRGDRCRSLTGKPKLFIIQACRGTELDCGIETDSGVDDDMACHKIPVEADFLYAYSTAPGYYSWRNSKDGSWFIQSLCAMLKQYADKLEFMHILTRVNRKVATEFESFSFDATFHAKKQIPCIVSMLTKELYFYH
In kind it is functional.

Assay [11] can be described thus: A549 cell cytotoxicity, dose response, cytotoxicity control, plate reader, cherry-pick, antagonist series (AID 743412). In kind it is functional, cell-based.
Assay [12] concerns the target Luciferin 4-monooxygenase (Photinus pyralis, UniProt P08659). As to the kind of experiment: firefly luciferase enzyme inhibitors, dose response, biochemical, luminescence (AID 1891).
A short description of assay [13]: Luminescence Cell-Based Dose Confirmation HTS to Identify Inhibitors of Platelet Dense Granule Release. [Related pubchem assays: 1663 (Primary HTS), 1678 (Summary of Project)]. It counts as functional.
A short description of assay [14]: inhibitors of intracellular T. cruzi replication, confirmation, NIH3T3 host cells, beta-gal luminescence (AID 2044).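 Note: intracellular parasites grown in NIH/3T3 mouse fibroblasts as host cells; luminescent beta-galactosidase reporter signal from transgenic T. cruzi replicating inside host cells; inhibitors lower the luminescence signal.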 It counts as functional, cell-based.
Assay [15] can be described thus: cytotoxicity toward NIH3T3 fibroblasts, dose response, counter-screen, cell-based, ATP luminescence, mouse fibroblasts (AID 2010).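 Note: cells exposed to compound for about 90 hours before reading.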 In kind it is functional.

Active and inactive are the calls of the source. Some results are limits rather than exact numbers.

Sequence of Kallikrein-7 (P49862 whole entry): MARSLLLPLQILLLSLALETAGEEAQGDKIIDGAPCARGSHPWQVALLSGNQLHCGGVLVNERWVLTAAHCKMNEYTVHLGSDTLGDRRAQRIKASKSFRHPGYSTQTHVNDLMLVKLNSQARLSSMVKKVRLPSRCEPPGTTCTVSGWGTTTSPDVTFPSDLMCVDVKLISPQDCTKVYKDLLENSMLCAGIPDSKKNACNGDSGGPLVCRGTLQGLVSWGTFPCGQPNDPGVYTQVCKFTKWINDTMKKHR
Sequence of Induced myeloid leukemia cell differentiation protein Mcl-1 (Q07820 whole entry): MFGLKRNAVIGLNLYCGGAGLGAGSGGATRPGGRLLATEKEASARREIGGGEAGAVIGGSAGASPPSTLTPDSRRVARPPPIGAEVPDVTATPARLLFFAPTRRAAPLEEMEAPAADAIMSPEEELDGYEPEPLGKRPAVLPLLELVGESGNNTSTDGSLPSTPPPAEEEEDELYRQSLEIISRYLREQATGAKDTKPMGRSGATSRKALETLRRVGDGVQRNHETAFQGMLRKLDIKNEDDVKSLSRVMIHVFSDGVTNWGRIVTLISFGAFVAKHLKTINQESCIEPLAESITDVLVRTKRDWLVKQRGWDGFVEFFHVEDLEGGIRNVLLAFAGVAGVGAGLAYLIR
Sequence of Luciferin 4-monooxygenase (P08659 whole entry): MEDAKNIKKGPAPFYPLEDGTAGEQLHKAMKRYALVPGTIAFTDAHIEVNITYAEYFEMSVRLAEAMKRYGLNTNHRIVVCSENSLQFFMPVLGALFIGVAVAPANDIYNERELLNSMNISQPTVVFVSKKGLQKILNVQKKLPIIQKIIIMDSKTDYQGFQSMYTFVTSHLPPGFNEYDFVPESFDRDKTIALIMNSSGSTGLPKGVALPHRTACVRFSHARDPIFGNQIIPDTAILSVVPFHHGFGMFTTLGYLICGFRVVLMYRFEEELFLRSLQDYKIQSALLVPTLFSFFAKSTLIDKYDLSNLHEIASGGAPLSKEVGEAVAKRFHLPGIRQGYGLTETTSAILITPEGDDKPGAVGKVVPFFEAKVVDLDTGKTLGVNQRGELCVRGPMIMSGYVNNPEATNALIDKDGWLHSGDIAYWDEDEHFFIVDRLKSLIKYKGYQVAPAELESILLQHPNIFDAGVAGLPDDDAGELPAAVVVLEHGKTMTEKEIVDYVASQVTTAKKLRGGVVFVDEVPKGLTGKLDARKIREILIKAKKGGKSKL

For `CCc1cc(N2CCOCC2)cc2c1[nH]c1ccccc12`, the IC50 in assay [1] is recorded as > 50 µM (not active).
Regarding `COC(=O)COc1cccc(NC(=O)COc2ccccc2)c1`, in “cells”, the IC50 is 1.65 µM (active). The cytotoxic concentration (CC50) in assay [2] is > 40 µM (active).
`O=C(Nc1ccc2c(c1)C(=O)NC2=O)c1ccc(S(=O)(=O)N2CCCC2)cc1`: the EC50 on Kallikrein-7 is 8.55 µM (active).
In the case of `O=C(c1ccc([N+](=O)[O-])s1)N1CCN(c2cccc(Cl)c2)CC1`, the IC50 in the assay “cells” was 1.11 µM (active). The cytotoxic concentration (CC50) in [2] was 35.6 µM (active). The half-maximal activity concentration (AC50) with INS1 is 7.83 µM (active). Besides, the EC50 in assay [3] is reported as > 195 µM (not active).
In the case of `COCCN(CCOC)c1cc(C)c(C#N)c2nc3ccccc3n12`, the EC50 at Kallikrein-7 was 11.2 µM (inactive).
Turning to `CCc1cccc(OCCCn2ccnc2)c1`, the CC50 in assay [2] is > 40 µM (active).
On to `Cc1cccc(-n2c(SCC(=O)N3CCCC3)nc3nnc(C)c-3c2N)c1`, for which the EC50 on Kallikrein-7 was 13.3 µM (inactive).
Regarding `O=C(NC1CCCCCC1)c1cc2c(=O)n3ccccc3nc2s1`, the EC50 on Kallikrein-7 was > 69.5 µM (inactive).
For the compound `O=C(Nc1ccc2nc3ccccc3nc2c1)c1ccccc1`, the EC50 on Kallikrein-7 was > 69.5 µM (inactive). Besides, in assay [4], the IC50 was > 54 µM (active).
Take `COCCn1c(C)cc(C(=O)CSc2nc3ccccc3s2)c1C`: the AC50 in assay [5] was 6.46 µM (active); in assay [8] it was 3.81 µM (active); in assay [9], 41.8 µM (active). Moreover, the IC50 in assay [6] was 83.7 µM (active); in assay [7], 8.92 µM (active); in [10], 27.4 µM (active); on Caspase-3, 26.4 µM (active).
`COC(=O)C1=CNC=C(C(=O)OC)C1c1ccc(C(=O)OC)cc1`: on Kallikrein-7, the EC50 is > 69.5 µM (inactive).
As to `CC(=O)c1ccc(Nc2nc(-c3sc(C)nc3C)cs2)cc1`, the AC50 in assay [5] was 34 µM (active); in assay [11], 2.08 µM (active); in assay [8], 21.8 µM (active); in assay [9], 2.87 µM (active).
For the compound `CCCCN1C(=O)/C(=N\c2cccc3cnccc23)c2ccccc21`, the IC50 in assay [1] was > 50 µM (not active). Further, the EC50 in assay [12] and in [13] was > 112 µM (not active) in each case.
In the case of `CCC/C(=N\NC(=O)c1ccco1)c1ccc(Cl)s1`, the 50% inhibitory concentration (IC50) in “cells” is 13.9 µM (active). Also, the CC50 in assay [2] was > 40 µM (active).
For the compound `O=C(O)c1ccc(/C=N/NC(=O)c2cc(-c3cccs3)nc3ccccc23)cc1`, the EC50 at Kallikrein-7 was 49.6 µM (inactive).
For `CC(C)(C)C1=CC(=O)C(=O)C(C(C)(C)C)=C1`, the EC50 is 0.62 µM (active) in assay [14] and 7.34 µM (active) in [15]. The IC50 in assay [1] is 9.84 µM (active).
`O=C(Nc1nc2ccccc2[nH]1)c1ccc(Cl)cc1`: the AC50 in [5] is 6.33 µM (active); in assay [11], 29.1 µM (active); in [8], 10.1 µM (active); in [9] it was 29.5 µM (active).

Broadly, the IC50 is the concentration at which inhibition is half-maximal. In general, CC50 refers to the concentration that lowers cell viability or growth by half. In general, EC50 refers to the midpoint of the concentration-response curve. What is called AC50 is the concentration giving half of the maximal activity seen.
